Key:
PI3K = PI3K (Homo sapiens, UniProt P42336); test: Fluorescence polarization assay for PI3K; assay type: biochemical; conditions: PI3Kα; read-out: PI3Kα IC50;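 note: PI3K kinase reaction on PIP2 with ATP, 30-60 min, product sensed by GST-GRP with red probe in fluorescence polarization (mP), controls without enzyme and at zero time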
prostate line LNCap = test: In vitro cell culture growth assay (MTS), LNCap; assay type: cell-based, human; conditions: LNCap cells, three days after drug treatment
breast line MDA468 = test: In vitro cell culture growth assay (MTS), MDA468; assay type: cell-based, human; conditions: MDA468 cells, three days after drug treatment
Method in brief: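 MDA468 or LNCap cells received inhibitors one day after plating and were grown for three days. Viable cell density read by MTS conversion, absorbance 490 nm, expressed as percent of control growth versus vehicle-treated cells on the same plate.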

PI3K, sequence (P42336 whole entry): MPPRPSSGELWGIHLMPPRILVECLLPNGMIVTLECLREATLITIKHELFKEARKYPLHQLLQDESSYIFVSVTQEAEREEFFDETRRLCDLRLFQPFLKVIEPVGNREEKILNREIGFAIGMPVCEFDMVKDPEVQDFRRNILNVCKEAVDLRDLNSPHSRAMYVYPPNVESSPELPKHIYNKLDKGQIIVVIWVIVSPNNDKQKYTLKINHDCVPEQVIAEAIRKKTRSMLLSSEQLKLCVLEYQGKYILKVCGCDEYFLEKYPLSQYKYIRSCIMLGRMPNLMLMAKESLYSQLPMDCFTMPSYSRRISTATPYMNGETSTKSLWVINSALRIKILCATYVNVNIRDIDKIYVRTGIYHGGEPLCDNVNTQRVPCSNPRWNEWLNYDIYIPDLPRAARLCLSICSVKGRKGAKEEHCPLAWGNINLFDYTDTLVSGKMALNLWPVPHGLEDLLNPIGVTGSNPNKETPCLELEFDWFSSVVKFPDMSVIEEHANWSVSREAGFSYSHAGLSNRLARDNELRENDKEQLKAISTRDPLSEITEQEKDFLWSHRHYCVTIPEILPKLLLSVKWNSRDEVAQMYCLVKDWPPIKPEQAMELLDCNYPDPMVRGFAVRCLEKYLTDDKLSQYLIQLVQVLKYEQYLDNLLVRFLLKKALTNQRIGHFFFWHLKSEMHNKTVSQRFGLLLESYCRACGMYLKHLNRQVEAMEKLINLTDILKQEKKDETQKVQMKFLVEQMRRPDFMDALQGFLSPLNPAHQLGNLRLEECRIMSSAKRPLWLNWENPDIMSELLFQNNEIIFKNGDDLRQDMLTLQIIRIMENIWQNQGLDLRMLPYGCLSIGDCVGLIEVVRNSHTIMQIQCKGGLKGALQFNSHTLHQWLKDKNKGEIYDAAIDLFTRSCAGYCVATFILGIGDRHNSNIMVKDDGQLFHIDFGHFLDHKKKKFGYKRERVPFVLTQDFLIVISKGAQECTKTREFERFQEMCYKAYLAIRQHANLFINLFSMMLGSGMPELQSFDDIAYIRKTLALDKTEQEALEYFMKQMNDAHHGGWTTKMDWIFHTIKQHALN
PI3K, sequence (P27986 whole entry partner): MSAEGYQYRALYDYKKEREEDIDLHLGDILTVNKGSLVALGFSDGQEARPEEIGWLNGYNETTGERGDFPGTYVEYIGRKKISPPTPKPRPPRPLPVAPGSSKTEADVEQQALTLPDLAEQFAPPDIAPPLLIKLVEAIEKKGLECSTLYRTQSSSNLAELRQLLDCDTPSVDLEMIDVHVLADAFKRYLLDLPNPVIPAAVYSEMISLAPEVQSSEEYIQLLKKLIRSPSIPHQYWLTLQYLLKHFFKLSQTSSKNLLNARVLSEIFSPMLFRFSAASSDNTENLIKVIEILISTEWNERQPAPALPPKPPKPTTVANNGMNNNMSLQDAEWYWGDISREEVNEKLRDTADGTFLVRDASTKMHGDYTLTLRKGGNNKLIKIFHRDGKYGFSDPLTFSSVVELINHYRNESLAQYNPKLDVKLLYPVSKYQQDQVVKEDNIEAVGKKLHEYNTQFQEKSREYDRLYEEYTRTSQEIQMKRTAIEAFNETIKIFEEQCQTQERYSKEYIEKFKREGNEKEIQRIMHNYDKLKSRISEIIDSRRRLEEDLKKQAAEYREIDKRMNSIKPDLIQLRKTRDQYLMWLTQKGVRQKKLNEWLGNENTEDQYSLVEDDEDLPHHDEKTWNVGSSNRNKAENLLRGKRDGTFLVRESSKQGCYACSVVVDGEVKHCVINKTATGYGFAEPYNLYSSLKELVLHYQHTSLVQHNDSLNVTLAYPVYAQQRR

| SMILES | IC50 (PI3K) [nM] | IC50 (prostate line LNCap; Homo sapiens, LNCaP, 72 h) [nM] | IC50 (prostate line LNCap) [nM] | IC50 (breast line MDA468; Homo sapiens, 72 h) [nM] | IC50 (breast line MDA468) [nM] |
| --- | --- | --- | --- | --- | --- |
| COC(=O)Nc1ccc(-c2nc(N3CCOCC3)c3cnn(C4CCN(CC(N)=O)CC4)c3n2)cc1 [Compound 456, methyl (4-{1-[1-(2-amino-2-oxoethyl)piperidin-4-yl]-4-morpholin-4-yl-1H-pyrazolo[3,4-d]pyrimidin-6-yl}phenyl)carbamate] | 1430 | 1300 | – | 3200 | – |
| Nc1ccc(-c2nc(N3CCOCC3)c3cnn(C4CCC5(CC4)OCCO5)c3n2)cc1 [Compound 565, 4-[1-(1,4-dioxaspiro[4.5]dec-8-yl)-4-morpholin-4-yl-1H-pyrazolo[3,4-d]pyrimidin-6-yl]aniline] | 2050 | 1100 | – | 7200 | – |
| Nc1ccnc(-c2nc(N3CCOCC3)c3cnn(C4CCN(C(=O)c5cccnc5)CC4)c3n2)c1 [Compound 678, 2-{4-morpholin-4-yl-1-[1-(pyridin-3-ylcarbonyl)piperidin-4-yl]-1H-pyrazolo[3,4-d]pyrimidin-6-yl}pyridin-4-amine] | 6660 | – | 39000 | – | > 60000 |
| CONC(=O)Nc1ccc(-c2nc(N3CCOCC3)c3cnn(C4CCN(C(=O)c5cccnc5)CC4)c3n2)cc1 [Example 308, 1-methoxy-3-(4-{4-morpholin-4-yl-1-[1-(pyridin-3-ylcarbonyl)piperidin-4-yl]-1H-pyrazolo[3,4-d]pyrimidin-6-yl}phenyl)urea] | 1810 | 800 | – | 3000 | – |
| COC(=O)Nc1ccc(-c2nc(N3CCOCC3)c3cnn(C4CCN(Cc5ccc(Cl)cc5)CC4)c3n2)cc1 [Compound 695, methyl (4-{1-[1-(4-chlorobenzyl)piperidin-4-yl]-4-morpholin-4-yl-1H-pyrazolo[3,4-d]pyrimidin-6-yl}phenyl)carbamate] | 388 | – | 2000 | – | 9000 |
| O=C(Nc1ccccc1)Nc1ccc(-c2nc(N3CCOCC3)c3cnn(C4CCN(Cc5cccnc5)CC4)c3n2)cc1F [Compound 598, 1-(2-fluoro-4-{4-morpholin-4-yl-1-[1-(pyridin-3-ylmethyl)piperidin-4-yl]-1H-pyrazolo[3,4-d]pyrimidin-6-yl}phenyl)-3-phenylurea] | 41 | 70 | – | 360 | – |
| COCCN1CCC(n2ncc3c(N4CCOCC4)nc(-c4ccc5[nH]ccc5c4)nc32)CC1 [Compound 241, 6-(1H-indol-5-yl)-1-[1-(2-methoxyethyl)piperidin-4-yl]-4-morpholin-4-yl-1H-pyrazolo[3,4-d]pyrimidine] | 5000 | 2400 | – | 4200 | – |
| CNC(=O)Nc1ccc(-c2nc(N3CCOCC3)c3cnn(C4CCSCC4)c3n2)cc1 [Compound 867, 1-methyl-3-{4-[4-morpholin-4-yl-1-(tetrahydro-2H-thiopyran-4-yl)-1H-pyrazolo[3,4-d]pyrimidin-6-yl]phenyl}urea] | 47 | < 18.5 | – | < 68.5 | – |
| CNC(=O)Nc1ccc(-c2nc(N3CCOCC3)c3cnn(C4CCN(C(=O)c5ccccn5)CC4)c3n2)cc1 [Compound 662, 1-methyl-3-(4-{4-morpholin-4-yl-1-[1-(pyridin-2-ylcarbonyl)piperidin-4-yl]-1H-pyrazolo[3,4-d]pyrimidin-6-yl}phenyl)urea] | 124 | – | 120 | – | 220 |
| COc1cc(-c2nc(N3CCOCC3)c3cnn(C4CCN(Cc5ccccc5)CC4)c3n2)ccc1NC(C)=O [Compound 182] | 3930 | 5000 | – | 4100 | – |
| COC(=O)Nc1ccc(-c2nc(N3CCOCC3)c3cnn(C4CCN(Cc5cccnc5OC)CC4)c3n2)cc1 [Compound 452, methyl [4-(1-{1-[(2-methoxypyridin-3-yl)methyl]piperidin-4-yl}-4-morpholin-4-yl-1H-pyrazolo[3,4-d]pyrimidin-6-yl)phenyl]carbamate] | 1830 | 600 | – | 2200 | – |
| O=C(N1CCCC1)N1CCC(n2ncc3c(N4CCOCC4)nc(-c4ccc5[nH]ccc5c4)nc32)CC1 [Compound 123] | 1300 | 450 | – | 1800 | – |
| COC(=O)N1CCC(n2ncc3c(N4CCOCC4)nc(-c4ccc(O)cc4)nc32)CC1 [Compound 944, methyl 4-[6-(4-hydroxyphenyl)-4-morpholin-4-yl-1H-pyrazolo[3,4-d]pyrimidin-1-yl]piperidine-1-carboxylate] | 2660 | 900 | – | 2100 | – |
| CC(C)(C)OC(=O)N1CCC(n2ncc3c(N4CCOCC4)nc(-c4ccc(NC(=O)Nc5ccc(CO)cc5)cc4)nc32)CC1 [Compound 953, tert-butyl 4-{6-[4-({[4-(hydroxymethyl)phenyl]carbamoyl}amino)phenyl]-4-morpholin-4-yl-1H-pyrazolo[3,4-d]pyrimidin-1-yl}piperidine-1-carboxylate] | 7 | 0.8 | – | 14 | – |

Further compounds by falling IC50 (PI3K), results first:

| IC50 (PI3K) [nM] | IC50 (prostate line LNCap; Homo sapiens, LNCaP, 72 h) [nM] | IC50 (prostate line LNCap) [nM] | SMILES | IC50 (breast line MDA468; Homo sapiens, 72 h) [nM] | IC50 (breast line MDA468) [nM] |
| --- | --- | --- | --- | --- | --- |
| 5190 | 15000 | – | Cn1ccc2cc(-c3nc(N4CCOCC4)c4cnn(C5CCN(Cc6ccccc6)CC5)c4n3)ccc21 [Compound 89] | 20000 | – |
| 2670 | 3800 | – | CC(c1ccccc1)N1CCC(n2ncc3c(N4CCOCC4)nc(-c4ccc5[nH]ccc5c4)nc32)CC1 (stereo not drawn) [Compound 240, 6-(1H-indol-5-yl)-4-morpholin-4-yl-1-[1-(1-phenylethyl)piperidin-4-yl]-1H-pyrazolo[3,4-d]pyrimidine] | 3500 | – |
| 2660 | 800 | – | NC(=O)CN1CCC(n2ncc3c(N4CCOCC4)nc(-c4ccc5[nH]ccc5c4)nc32)CC1 [Compound 495, 2-{4-[6-(1H-indol-5-yl)-4-morpholin-4-yl-1H-pyrazolo[3,4-d]pyrimidin-1-yl]piperidin-1-yl}acetamide] | 2800 | – |
| 2390 | 750 | – | Cc1ncccc1C(=O)N1CCC(n2ncc3c(N4CCOCC4)nc(-c4ccc5[nH]ccc5c4)nc32)CC1 [Example 200, 6-(1H-indol-5-yl)-1-{1-[(2-methylpyridin-3-yl)carbonyl]piperidin-4-yl}-4-morpholin-4-yl-1H-pyrazolo[3,4-d]pyrimidine] | 2000 | – |
| 1320 | 6200 | – | c1ccc(CN2CCC(n3ncc4c(N5CCOCC5)nc(-c5ccc6nonc6c5)nc43)CC2)cc1 [Compound 190] | 6000 | – |
| 1270 | 2100 | – | c1ccc(CN2CCC(n3ncc4c(N5CCOCC5)nc(-c5ccc6cc[nH]c6c5)nc43)CC2)cc1 [Compound 49] | 5800 | – |
| 878 | 630 | – | CC(=O)Nc1ccc(-c2nc(N3CCOCC3)c3cnn(C4CCN(C(=O)c5cccnc5)CC4)c3n2)cc1 [Example 159, N-(4-{4-morpholin-4-yl-1-[1-(pyridin-3-ylcarbonyl)piperidin-4-yl]-1H-pyrazolo[3,4-d]pyrimidin-6-yl}phenyl)acetamide] | 2500 | – |
| 364 | 80 | – | O=C(NCCCO)Nc1ccc(-c2nc(N3CCOCC3)c3cnn(C4CCN(Cc5ccccc5)CC4)c3n2)cc1 [Compound 514, 1-{4-[1-(1-benzylpiperidin-4-yl)-4-morpholin-4-yl-1H-pyrazolo[3,4-d]pyrimidin-6-yl]phenyl}-3-(3-hydroxypropyl)urea] | 650 | – |
| 264 | 260 | – | CC(C)(C)OC(=O)N1CCC(n2ncc3c(N4CCOCC4)nc(-c4ccc(NC(=O)Nc5nccs5)cc4)nc32)CC1 [Compound 884, tert-butyl 4-(4-morpholin-4-yl-6-{4-[(1,3-thiazol-2-ylcarbamoyl)amino]phenyl}-1H-pyrazolo[3,4-d]pyrimidin-1-yl)piperidine-1-carboxylate] | 1600 | – |
| 236 | 50 | – | CNC(=S)Nc1ccc(-c2nc(N3CCOCC3)c3cnn(C4CCN(C(=O)OC(C)C)CC4)c3n2)cc1 [Compound 831, isopropyl 4-[6-(4-{[(methylamino)carbonothioyl]amino}phenyl)-4-morpholin-4-yl-1H-pyrazolo[3,4-d]pyrimidin-1-yl]piperidine-1-carboxylate] | 390 | – |
| 83 | 110 | – | CNC(=O)Nc1ccc(-c2nc(N3CCOCC3)c3cnn(C4CCN(C(=O)c5cccc(C(C)=O)c5)CC4)c3n2)cc1 [Example 423, 1-(4-{1-[1-(3-acetylbenzoyl)piperidin-4-yl]-4-morpholin-4-yl-1H-pyrazolo[3,4-d]pyrimidin-6-yl}phenyl)-3-methylurea] | 200 | – |
| 74 | 205 | – | CC(C)(C)OC(=O)N1CCC(n2ncc3c(N4CCOCC4)nc(-c4ccc(NC(=O)Nc5ccccc5)cc4)nc32)CC1 [Compound 768, tert-butyl 4-(6-{4-[(anilinocarbonyl)amino]phenyl}-4-morpholin-4-yl-1H-pyrazolo[3,4-d]pyrimidin-1-yl)piperidine-1-carboxylate] | 710 | – |
| 66 | 600 | – | CNC(=O)Nc1ccc(-c2nc(N3CCOCC3)c3cnn(C4CCN(CC(N)=O)CC4)c3n2)cc1 [Example 332, 2-[4-(6-{4-[(methylcarbamoyl)amino]phenyl}-4-morpholin-4-yl-1H-pyrazolo[3,4-d]pyrimidin-1-yl)piperidin-1-yl]acetamide] | 1000 | – |
| 42 | 52 | – | CNC(=O)Nc1ccc(-c2nc(N3CCOCC3)c3cnn(C4CCN(C(=O)c5ccc(Cl)cc5)CC4)c3n2)cc1 [Example 362, 1-(4-{1-[1-(4-chlorobenzoyl)piperidin-4-yl]-4-morpholin-4-yl-1H-pyrazolo[3,4-d]pyrimidin-6-yl}phenyl)-3-methylurea] | 400 | – |

From patent US20080234262A1 (Wyeth, priority 2007, published 2008)
